For the test, the system named is endogenous target monocytes of human PBMC. Description: PBMC Ex Vivo Depletion Assay (human PBMC monocyte depletion flow cytometry). It counts as cell-based. The conditions noted are these: monocyte depletion in human PBMC with anti-cotinine antibody; 18-24 hours incubation; read-out: Ex Vivo Depletion Assay pEC50 (converted). As for the experimental part: A human PBMC (peripheral blood mononuclear cells) monocyte depletion flow cytometry assay was developed to screen compounds in a 384-well plate format. This assay incorporated endogenous natural killer cells to deplete endogenous target monocytes.
To screen compounds in the human PBMC monocyte depletion flow cytometry assay, 11-point dose-response curves were made from 1 mM stocks in neat DMSO by serially diluting an ARM compound of Formula (I) four-fold into a 384-well plate row-wise. These serially diluted compounds were then stamped into a flat bottom polypropylene 384-well plate (Greiner Bio-One) at 100 nL/well. […]
After 18-24 hours incubation, 2 μL of 6.25 μg human FC block (BD Pharmingen) that was diluted in assay medium was added to the wells of the plate. […] Samples from the plate were run on BD FACS Canto II flow cytometer and data was analyzed using FlowJo software.
ARMs compounds of Formula (I) of the invention were tested for the ability to deplete monocytes in the above assay in one or more experimental runs and the results are shown in Table 3 below. […] The pEC50 value is the negative log of the EC50 value, wherein the EC50 value is the half maximal effective concentration measured in molar (M). For compounds tested in more than one experimental run, the pEC50 value is reported as an average or as the individual values measured
On the technique in general: In flow cytometry, cells or beads pass a laser one at a time.

This note sets out measurements from patent US20250154288A1, “CYTOTOXICITY TARGETING CHIMERAS FOR C-C CHEMOKINE RECEPTOR 2-EXPRESSING CELLS” (GLAXOSMITHKLINE INTELLECTUAL PROPERTY DEVELOPMENT LIMITED, priority 2022, published 2025).

Regarding `CO[C@@H]1COCC[C@@H]1N[C@@H]1CC[C@@](C(=O)N2CCc3nc(CCCCOc4cccc(C(=O)NCCOCCOCCOCCOCCOCCOCCOCCOCCOCCNC(=O)[C@H]5CC(=O)N(C)[C@@H]5c5cccnc5)c4)c(C(F)(F)F)cc3C2)(C(C)C)C1` [Example 22, (2S,3S)—N-(1-(3-(4-(6-((1S,3R)-1-Isopropyl-3-(((3S,4S)-3-methoxytetrahydro-2H-pyran-4-yl)amino)cyclopentane-1-carbonyl)-3-(trifluoromethyl)-5,6,7,8-tetrahydro-1,6-naphthyridin-2-yl)butoxy)phenyl)-1-oxo-5,8,11,14,17,20,23,26,29-nonaoxa-2-azahentriacontan-31-yl)-1-methyl-5-oxo-2-(pyridin-3-yl)pyrrolidine-3-carboxamide], the EC50 was 0.794 nM.
